Patent publication US6348445B1, “Biologically active peptides with reduced toxicity in animals and a method for preparing same” (priority 1992, dated 2002)
Like-named read-outs stand apart in the source and are kept apart here. Where no end group is shown, it is not given here.

Test: MTD of repeat-dose intraperitoneal administration
Assay type: in vivo, SCID mice
Conditions: for MTD at 504 h: male, SCID (Fox Chase C.B-17/IcrTac-scidfDF), mouse, in vivo, ip
Description: Determinations of a maximal tolerated dose (MTD) of repeat-dose intraperitoneal (i.p.) administration of MSI-344 or MSI-1857 in 60 SCID mice were done. Mice were injected with various doses of MSI-344 or MSI-1857 twice or thrice per week. Survival and body weight were monitored. On a twice per week dosing schedule, the MTDs of MSI-344 and MSI-1857 were 12 and 134 mg/kg/week, respectively. […] On a thrice per week dosing schedule, no deaths occurred in any groups, with high dose groups of MSI-344 and MSI-1857 receiving 90 mg/kg/week and […], respectively. A transient body weight loss was seen after initial dosing in most MSI-344 and MSI-1857 groups. No body weight loss greater than 6% occurred in any group on the thrice per week dosing schedule.
To determine estimates of MTDs of MSI-344 and MSI-1857 when administered intraperitoneally on repeat-dose regimens in SCID mice. The selection of SCID mice was based on the future plans of using this strain as host for xenograft human tumor efficacy models, and a pre-requisite for determining MTD for chronic administration that may be used during the efficacy model.
SCID mice are immunocompromised and therefore they were housed and handled in sterile environments. They had access to sterile water and sterilized chow ad lib.
A 1 mg/mL solution of MSI-344 was made in saline (0.9% sodium chloride injection USP, Abbott, North Chicago, Ill.) corrected for peptide content. Solutions of MSI-344 at concentrations of 0.6, 0.3, and 0.1 mg/mL were made by diluting the 1 mg/mL solution using saline as diluent. A 10 mg/mL solution of MSI-1857 was made in saline.
Solutions of MSI-1857 at concentrations of 6.7, 3.3, 3, 2, and 1 mg/mL were made by diluting the 10 mg/mL solution using saline as diluent.
Mice (four mice per dose group) were intraperitoneally administered MSI-344 or MSI-1857 using an injection volume of 10 mL/kg of the appropriate solution concentration on a twice per week (Groups 1 through 7) or thrice per week (Groups 8 through 15) dosing schedule every week for 20 weeks. Survival was monitored daily and body weights were recorded three times per week An interim analysis was performed at 3 weeks and the results of this interim analysis is presented in the present report.

**Q.** With GIGKFLKKAKKFGKAFVKILKK [MSI-344] as the sequence, how does the “effect of initial dosings on body weight” value (all surviving groups except the low dose group on the thrice-per-week schedule) read?
**A.** The value was “dose-dependent transient body weight loss”.

**Q.** What about the “MTD, thrice per week dosing schedule” value (i.p., SCID mice, interim analysis at 3 weeks) of the same sequence?
**A.** Its value is “greater than or equal to 18 mg/kg/week”.

**Q.** What about the MTD at 504 h (SCID mice, interim analysis at 3 weeks, read-out: MTD, thrice per week dosing schedule) of the same sequence?
**A.** The MTD at 504 h was at least 2.57 mg/kg/day.

**Q.** What about the MTD at 504 h (SCID mice, interim analysis at 3 weeks, read-out: MTD, twice per week dosing schedule (converted)) of the same sequence?
**A.** The MTD at 504 h was 1.71 mg/kg/day.
